Experimental data published in US20130079348A1, “COMPOUNDS THAT MODULATE INTRACELLULAR CALCIUM” (CalciMedica, Inc., priority 2010, published 2013).

How the values were obtained:
[1] = target: STIM1 and Orai1 in HEK293 cells (Homo sapiens, UniProt Q96D31); settings: HEK293 cells expressing STIM1 and Orai1; cited from earlier work
Jurkat cells = settings: cited from earlier work
[2] = target: T1, recombinant human STIM1 and Orai1 (HEK-293 cells) (Homo sapiens, UniProt Q96D31); experiment: Fluorescence-based assay of store-operated calcium entry in Orai1/STIM1 stable cells; assay type: cell-based; settings: concentration that inhibited 50% of the Peak-Basal fluorescence signal; 30 min compound incubation; read-out: IC50(μM) JR251
T1 construct: c-myc (C); expressed in transfected cells; host or cells: HEK-293
Experimental: A. Fluorescence-based Assay of Store-Operated Calcium Entry in Orai1/STIM1 Stable Cells.
Cells stably expressing recombinant human STIM1 and Orai1 were generated by transfecting a human Orai1 expression plasmid (pcDNA3.1-Orai1-cmyc) into HEK-293 cells stably overexpressing human STIM1 (Roos et al. 2005 JCB 169(3): 435-445). Colonies of cells stably expressing both STIM1 and Orai1 proteins were selected and then subcloned by limiting dilution. Cells were cultured at 37° C./6% CO2 in complete medium with 10% FBS and appropriate selection markers.
The day prior to performing the assay Orai1/STIM1 stable cells were plated in 50 μL of complete medium at 90-95% confluence in a 384 well plate. Cells were grown at 37° C./6% CO2 overnight. On the day of the assay, 1.5 μM fluo-4-AM (Invitrogen) in complete medium was added to the cells, which were then incubated for 1 hour at RT. Cells were washed once in Ca^2+-free HBSS (Hank's buffered saline solution) and 35 μl of Ca^2+-free HBSS was added to each well. Test compounds were added to wells in a 10 μL Ca^2+-free HBSS solution, prepared at 4.5× the desired final concentration, and incubated for 30 minutes at RT. The initial baseline fluorescence signal was then measured with a FLIPR^384 (Molecular Devices) plate reader. Calcium entry was initiated by adding 5 μl of 10× CaCl2 (10 mM) in HBSS, and changes in cellular fluorescence were measured with the FLIPR^384 plate reader. In each well, the magnitude of the fluorescence signal as a result of calcium entry into the cell was determined by calculating the difference between the peak fluorescence signal measured after calcium addition and the initial baseline fluorescence signal (designated Peak-Basal). IC50 values were typically calculated as the concentration that inhibited 50% of the Peak-Basal signal (Table A).

RBL-2H3 cells = experiment: Fluorescence-based assay of store-operated calcium entry in RBL-2H3 cells; assay type: cell-based; settings: Rattus norvegicus, thapsigargin store depletion, 50% of the Upslope inhibited
Experimental: B. Fluorescence-based Assay of Store-Operated Calcium Entry in RBL-2H3 Cells.
RBL-2H3 cells were obtained from ATCC and maintained in complete medium with 10% FBS at 37° C./6% CO2.
The day prior to performing the assay, RBL-2H3 cells are plated in 50 μL of complete medium in a 384 well plate. Cells are grown at 37° C./6% CO2 overnight and grow to 50-60% confluence by the next day. On the assay day, 1.5 μM Fluo-4-AM dye (Invitrogen) in complete medium is added and incubated for 1 hour at RT. Cells are washed twice in Ca^2+-free HBSS buffer and 35 μL Ca^2+-free HBSS buffer is added to each well. 10 μL of a test compound prepared in a Ca^2+-free HBSS solution at 4.5× of the desired concentration is added to a well and incubated for 5 minutes at RT. 10 μL of thapsigargin prepared in a Ca^2+-free HBSS solution at 5.5× of the desired concentration (5.5 uM) is added to each well and incubated for an additional 25 minutes. The initial baseline fluorescence signal is measured with a FLIPR^384 (Molecular Devices) plate reader. 5 μL of 12× calcium in HBSS (12 mM) is added and changes in cellular fluorescence are measured with the FLIPR^384 plate reader. In each well, the change in the fluorescent signal as a function of time due to calcium entry into the cell is determined by calculating the difference between the fluorescent signal measured 7 seconds after calcium addition and the initial baseline fluorescence signal at time zero (t=0). This parameter is designated Upslope. The IC50 value is calculated as the concentration at which 50% of the Upslope is inhibited.

T1 sequence (Q96D31 whole entry): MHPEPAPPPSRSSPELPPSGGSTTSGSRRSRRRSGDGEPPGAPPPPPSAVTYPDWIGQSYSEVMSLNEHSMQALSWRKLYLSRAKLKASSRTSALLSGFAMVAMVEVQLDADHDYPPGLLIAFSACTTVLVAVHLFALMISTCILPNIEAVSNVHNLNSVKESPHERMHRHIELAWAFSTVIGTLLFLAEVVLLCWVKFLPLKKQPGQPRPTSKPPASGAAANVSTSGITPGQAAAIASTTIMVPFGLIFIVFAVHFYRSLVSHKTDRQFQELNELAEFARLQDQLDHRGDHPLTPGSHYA
Sequence of STIM1 and Orai1 in HEK293 cells (Q96D31 whole entry): as above

| IC50 [2] [µM] | IC50 (RBL-2H3 cells) [µM] | SMILES | also measured |
| --- | --- | --- | --- |
| – | – | NCCOB(c1ccccc1)c1ccccc1 [2-aminoethoxydiphenylborate] | block of store-operated Ca2+ entry [1]: completely blocked |
| – | – | Cc1nnsc1C(=O)Nc1ccc(-n2nc(C(F)(F)F)cc2C(F)(F)F)cc1 [BTP-2] | inhibition of proliferation (Jurkat cells; Jurkat cells and colon cancer cells): inhibits; inhibition of SOCE (Jurkat cells; Jurkat cells): inhibits |
| ≤ 0.5 | ≤ 0.5 | Cc1ccc(-c2scc(NC(=O)c3cc4c(F)cccn4n3)c2C(=O)O)c(F)c1 [Compound 1] | – |
| ≤ 0.5 | ≤ 0.5 | Cc1ccc(-c2csc(NC(=O)c3cc4cccc(C)n4n3)c2C(=O)O)c(F)c1 [Compound 2] | – |
| – | ≤ 0.5 | Cc1ccc(-c2csc(NC(=O)c3cc4cccc(C)n4n3)c2C(=O)O)c(F)c1F [Compound 3] | – |
| – | 1 to 10 | Cc1ccc(-c2csc(NC(=O)c3nn4ccccc4c3N)c2C(=O)O)c(F)c1F [Compound 4] | – |
| 1 to 10 | 0.5 to 1 | O=C(Nc1scc(-c2ccc(Cl)cc2)c1C(=O)O)c1cc2c(F)cc(F)cn2n1 [Compound 5] | – |
| – | 0.5 to 1 | Cc1ccc(-c2csc(NC(=O)c3cc4c(F)cc(F)cn4n3)c2C(=O)O)c(F)c1F [Compound 6] | – |
| – | 0.5 to 1 | COc1cccn2nc(C(=O)Nc3scc(-c4ccc(Cl)cc4)c3C(=O)O)cc12 [Compound 7] | – |
| – | 0.5 to 1 | Cc1ccc(-c2csc(NC(=O)c3cc4ccc(F)cn4n3)c2C(=O)O)c(F)c1F [Compound 8] | – |
| 0.5 to 1 | 1 to 10 | COc1cccc2cc(C(=O)Nc3scc(-c4ccc(Cl)cc4)c3C(=O)O)nn12 [Compound 9] | – |
| – | 0.5 to 1 | COc1cccn2nc(C(=O)Nc3scc(-c4ccc(C)c(F)c4F)c3C(=O)O)cc12 [Compound 10] | – |
| ≤ 0.5 | ≤ 0.5 | Cc1ccc(-c2csc(NC(=O)c3nc4ccc(F)cc4s3)c2C(=O)O)c(F)c1F [Compound 11] | – |
| 0.5 to 1 | ≤ 0.5 | Cc1ccc(-c2csc(NC(=O)c3nc4ccc(F)cc4s3)c2C(=O)O)c(F)c1 [Compound 12] | – |
| 0.5 to 1 | ≤ 0.5 | O=C(Nc1scc(-c2ccc(Cl)cc2F)c1C(=O)O)c1nc2c(F)cccc2s1 [Compound 13] | – |
| 0.5 to 1 | 0.5 to 1 | Cc1ccc(-c2csc(NC(=O)c3nc4c(F)cccc4s3)c2C(=O)O)c(F)c1 [Compound 14] | – |

| IC50 [2] [µM] | IC50 (RBL-2H3 cells) [µM] | SMILES | also measured |
| --- | --- | --- | --- |
| – | 0.5 to 1 | Cc1ccc(-c2csc(NC(=O)c3nc4cc(C(F)(F)F)ccc4s3)c2C(=O)O)c(F)c1F [Compound 15] | – |
| – | ≤ 0.5 | Cc1ccc(-c2csc(NC(=O)c3nc4ccc(Br)cc4s3)c2C(=O)O)c(F)c1F [Compound 16] | – |
| ≤ 0.5 | ≤ 0.5 | Nc1cccc2nc(C(=O)Nc3scc(-c4ccc(Cl)cc4)c3C(=O)O)sc12 [Compound 17] | – |
| 0.5 to 1 | ≤ 0.5 | Cc1ccc(-c2csc(NC(=O)c3nc4cccc(N)c4s3)c2C(=O)O)c(F)c1F [Compound 18] | – |
| 0.5 to 1 | ≤ 0.5 | COc1ccc2sc(C(=O)Nc3scc(-c4ccc(Cl)cc4)c3C(=O)O)nc2c1 [Compound 19] | – |
| ≤ 0.5 | 0.5 to 1 | COc1cccc2sc(C(=O)Nc3scc(-c4ccc(Cl)cc4)c3C(=O)O)nc12 [Compound 20] | – |
| 0.5 to 1 | ≤ 0.5 | O=C(Nc1scc(-c2ccc(Cl)cc2)c1C(=O)O)c1nc2cccc(Cl)c2s1 [Compound 21] | – |
| 0.5 to 1 | ≤ 0.5 | Cc1ccc(-c2csc(NC(=O)c3nc4cccc(Cl)c4s3)c2C(=O)O)c(F)c1F [Compound 22] | – |
| 0.5 to 1 | ≤ 0.5 | Cc1ccc(-c2csc(NC(=O)c3sc4ccccc4[n+]3[O-])c2C(=O)O)c(F)c1F [Compound 23] | – |
| 1 to 10 | 0.5 to 1 | CC(=O)Nc1cccc2nc(C(=O)Nc3scc(-c4ccc(Cl)cc4)c3C(=O)O)sc12 [Compound 24] | – |
| 0.5 to 1 | 1 to 10 | Cc1ccc(-c2csc(NC(=O)c3nc4cccc(O)c4s3)c2C(=O)O)c(F)c1F [Compound 25] | – |
| ≤ 0.5 | ≤ 0.5 | Cc1ccc(-c2csc(NC(=O)c3c(O)ccc(F)c3F)c2C(=O)O)c(F)c1F [Compound 26] | – |
| ≤ 0.5 | ≤ 0.5 | Cc1ccc(-c2csc(NC(=O)c3cc(F)cc(F)c3O)c2C(=O)O)c(F)c1F [Compound 27] | – |
| ≤ 0.5 | ≤ 0.5 | O=C(O)c1c(-c2ccc(Cl)cc2)csc1NC(=O)N1Cc2cccc(F)c2C1 [Compound 28] | – |
| ≤ 0.5 | ≤ 0.5 | Cc1ccc(-c2csc(NC(=O)c3ccc(F)c(F)c3O)c2C(=O)O)c(F)c1F [Compound 29] | – |
